Experiments:
OCI-AML2 cells = test: Drug sensitivity of OCI-AML2 cells after p16 shRNA knockdown; format: cell-based; conditions: p16 shRNA versus control shRNA, mimics CDKN2A deletion (FIG. 7)
Protocol: OCI AML2 cells were infected with control or three p16 shRNA from Sigma (MO). Infected cells were selected with 1 μM puromycin. After selection, cells were used in drug treatment experiments. All cells were maintained at 37° C. in 5% CO2.
One gene product of the CDKN2A locus is p16. Therefore shRNA was used to decrease p16 expression to mimic a situation of CDKN2A deletion. […] Given ABT-348 is a dual inhibitor of VEGF and Aurora kinase B inhibitors, ABT-869, which inhibits VEGF but not Aurora kinase B inhibitors was included to confirm the effect was specific to Aurora kinase B inhibitors inhibition.

hematologic malignancies = test: Phase 1 clinical trial of ABT-348 in subjects with hematologic malignancies, CDKN2A status of objective responders; format: in vivo, human; conditions: three patients assessed had deletion of CDKN2A (FIG. 2)
Description: Three patients assessed had deletion of CDKN2A.

[1] = tested on: panel of cell lines with and without CDKN2A deletion; test: Sensitivity to Aurora kinase inhibitors in a panel of cell lines with and without CDKN2A deletion; format: cell-based; conditions: cell line panel (FIG. 4 bottom left, FIG. 6)
Protocol: AML cell lines were obtained from the American Type Culture Collection (ATCC; Manassas, Va.) and propagated according to ATCC recommendations.
Based on observation, it was hypothesized that patient samples with a high proportion of cells in G2/M (ie. cycling) would be sensitive to ABT-348. Therefore, a database search was performed to identify genotypes likely to overexpress Aurora kinase B given its expression is increased in M phase of cell cycle (top left). […] Data from Cancer Cell Line Encyclopedia (CCLE) supported this hypothesis (top right). Sensitivity to Aurora kinase inhibitors including ABT-348 was assessed in a panel of cell lines with and without this deletion (bottom left). […] CDKN2A status was then assessed by in situ hybridization in patient samples from ABT-348 trials. An example from one patient is shown (bottom right).

[2] = tested on: cycling cells in blood of patients; test: Flow cytometry of patient blood, pharmacodynamic activity (≧4N cells); format: in vivo, human; conditions: patients treated with ABT-348; associated with percentage of cycling cells at baseline (FIG. 3)
Protocol: Blood of patients was added to lyse fix buffer (BD Biosciences). After lysis of red blood cells, the sample was washed, and permeabilized using Phosflow Perm/wash buffer (BD Biosciences). The sample was incubated for 15 minutes with DAPI (75 ng/mL) before analyzing on a flow cytometer.

Description for solid tumors: The Y axis list best % tumor change from baseline and the X axis are % tumor cells assessed with a deletion in CDKN2A. The hashed line indicates a putative cutoff separating patients with deletion from those without. […] Threshold to define deletion is <1.2 copies.

Structure (SMILES)	sensitivity of OCI-AML2 cells after p16 knockdown (silencing p16 sensitizes) (OCI-AML2 cells)	objective response in patients with deletion of CDKN2A (hematologic malignancies)	sensitivity of cell lines with CDKN2A deletion versus without [1]	pharmacodynamics activity [2]	discontinuation due to toxicity (solid tumors; human, in vivo)	tumor response in patients without a CDKN2A deletion (solid tumors; solid tumors, patients without deletion (FIG. 1))	clinical response in patients with a deletion of CDKN2A (solid tumors; solid tumors, three patients showed a deletion of CDKN2A, best % tumor change from baseline (FIG. 1))
CCN(CCCOc1ccc2c(Nc3cc(CC(=O)Nc4cccc(F)c4)n[nH]3)ncnc2c1)CCOP(=O)(O)O [AZD-1152, 2-[[3-({4-[(5-{2-[(3-Fluorophenyl)amino]-2-oxoethyl}-1H-pyrazol-3-yl)amino]-quinazolin-7-yl}oxy)propylliethyl)amino]ethyl dihydrogen phosphate]	more sensitive	–	–	–	–	–	–
Nc1ncc(-c2cnn(CCO)c2)c2scc(-c3ccc(NC(=O)Nc4cccc(F)c4)cc3)c12 [ABT-348, 1-(4-(4-amino-7-(1-(2-hydroxyethyl)-1H-pyrazol-4-yl)thieno[3,2-c]pyridin-3-yl)phenyl)-3-(3-fluorophenyl)urea]	more sensitive	One patient obtained a complete response, and the others had a partial response	more sensitive	increase in the number of ≧4N cells	the third discontinued due to toxicity	No patient without a deletion demonstrated a tumor response	Two of these patients had a clinical response
Cc1ccc(F)c(NC(=O)Nc2ccc(-c3cccc4[nH]nc(N)c34)cc2)c1 [ABT-869]	not	–	–	–	–	–	–

Source: patent publication US20160153052A1, “MARKER TO PREDICT AND MONITOR RESPONSE TO AURORA KINASE B INHIBITOR THERAPY” (AbbVie Inc., priority 2014, published 2016)
